The text below walks through data of patent US7405222B2, “Methods and compositions for treatment of erectile dysfunction” (Modular Properties, Ltd., priority 2002, dated 2008).

In data set [1] the test system is male erectile dysfunction. Conditions: monotherapy or combination as stated; cited from earlier work.
The text on data set [2]:
Suitable pharmaceutical vehicles are well known to those skilled in the art and are described in several manuals, including Remington's Pharmaceutical Sciences, 15th edition. […] Similarly, formulations containing PGE1, papaverine, phentolamine and atropine, should be kept under refrigeration.

Data set [3] has as its system male erectile dysfunction. The settings on record: in vivo; cited from earlier work.
For data set [4] the following is noted: in vivo; cited from earlier work.
For data set [5], the system named is male erectile dysfunction. Conditions: intranasal; cited from earlier work.

Regarding `Cc1ccc(N(CC2=NCCN2)c2cccc(O)c2)cc1` [Phentolamine, phentolamine], in data set [1], the erectile response entry is listed as “does not reliably produce an erection sufficient for intercourse”.
With `CCCCC[C@H](O)/C=C/[C@H]1[C@H](O)CC(=O)[C@@H]1CCCCCCC(=O)O` [PGE1, Prostaglandin E1], in data set [2], the stability in storage entry is “not stable in water at room temperature”. The “subjects with significant pain” value in data set [3] is “up to 40%”. Also, in data set [4], the half life result was “short half life compared with papaverine and phentolamine”.
As to `CCCc1nn(C)c2c(=O)[nH]c(-c3cc(S(=O)(=O)N4CCN(C)CC4)ccc3OCC)nc12` [sildenafil], in data set [5], the “time to response in producing an erection” value is recorded as “within five minutes”.
As for `COc1ccc(Cc2nccc3cc(OC)c(OC)cc23)cc1OC` [papaverine], the erectile response entry in data set [1] is given as “unpredictable response”.
